Experimental data from article PMC8102418 (iScience, 2021).
No end group written: not given here.

How the values were obtained:
[1] = test system: interaction between SRPK1 and SRSF1; assay: In vitro GST pull-down of GST-SRSF1 with SRPK1ΔNS3; format: binding; details: 500 nM GST-SRSF1, 500 nM SRPK1, 4°C 3 h, SDS-PAGE, Coomassie Blue
[2] = biological target: SRPK1 (Homo sapiens, UniProt Q96SB4); assay: In vitro radioactive kinase assay, SRSF1 phosphorylation by SRPK1; format: biochemical; details: 50 μM [32P]ATP, different inhibitor concentrations
[3] = biological target: SRPK1 (SRPK1ΔNS3) (Homo sapiens, UniProt Q96SB4); assay: Isothermal titration calorimetry; format: binding; details: SD
[4] = test system: SRPK2; details: ref Batson et al., 2017; cited from earlier work
[5] = test system: CLK1; details: ref Batson et al., 2017; cited from earlier work

**Q.** Which “inhibition of the binding of GST-SRSF1 and SRPK1ΔNS3 (GST pull-down)” value [1] does the source give for GRKKRRQRRRPQSWQDLKDH [control peptide] here?
**A.** did not inhibit

**Q.** What about the “inhibition of SRSF1 phosphorylation by SRPK1 (in words)” value [2] of the same compound?
**A.** did not inhibit

**Q.** For RERARTR [7-mer, R-E-R-A-R-T-R], which Kd [3] is on record?
**A.** 112 ± 9.9 µM

**Q.** For O=C(Nc1cc(C(F)(F)F)ccc1N1CCN(Cc2ccccn2)CC1)c1ccc(-c2ccncc2)o1 [SPHINX31], which “affinity for SRPK2 lower than that of SRPK1” value [4] is on record?
**A.** 50 fold

**Q.** What about the “affinity for CLK1 lower than that of SRPK1” value [5] of the same compound?
**A.** 50 fold
